In patent EP0808325B1, “[…] […] SERIES FOR […] GABA RECEPTOR” (priority 1994, dated 1996):

Legend:
[1] = system: metrazol induced convulsions; assay: animal or person; assay type: in vivo, mice
mice [2] = assay: light/dark transition test; assay type: in vivo, N.I.H. Swiss-Webster mice; settings: IP
Description: The light/dark transition test (Crawley and Goodwin, Pharmacol. Biochem. Behav. 13:67-70 1980) is based on the observation that rodents naturally tend to explore novel environments, but open, brightly lit arenas are aversive to the rodents and inhibit exploratory behavior (Christmas and Maxwell, Neuropharmacol. 9:17-29 1970; File, J. Neurosci. Meth. 2:219-238 1980).
Male N.I.H. Swiss-Webster mice (Harlan, Harlan, Indianapolis, IN) weighing 15-20 g were housed four per cage in polyethylene cages with sawdust bedding. The colony room was environmentally controlled (22°C) with a 12 hr light/dark cycle (0600-1800 hr). Food and water were available ad libitum, except during testing. The experiments were run from 0700-1500 hr and groups were counterbalanced for time of day effects. Mice were only administered drug or vehicle once.
The method used was a modification of methods previously described (Wieland et al., Br. Res. 565:263-268 (1991)). The apparatus included two 2-compartment automated test chambers (Model RXYZCM16, Omnitech Electronics, Columbus, OH). The open compartment was connected to the enclosed compartment via a 7.5 x 7.5 cm passageway. The open compartment was brightly lit using a 200 W incandescent light bulb. The experimental room was kept dark. Interruptions of the infrared beams in either chamber were automatically recorded by being linked to a computer through a Digiscan Analyzer (Omnitech Electronics) and the data was analyzed using the Integrated Lab Animal Monitoring System (Omnitech Electronics).
N.I.H. Swiss-Webster mice were administered vehicle or test drug intraperitoneally (IP), 10 min later they were placed in the center of the lit compartment. The number of transitions between the lit and dark chambers, total activity in the lit chamber and the time spent in the lit chamber were measured during a 10 min test period.

mice [3] = assay: elevated plus-maze; assay type: in vivo, N.I.H. Swiss-Webster mice
In short: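 Male Swiss-Webster mice (15-20 g), dosed once with drug or vehicle, were placed on an elevated plus-maze 10 min post-injection for 5 min. Open-arm entries and open-arm time recorded, each as a percentage of total arm entries or time; center time excluded.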

CC(=O)[C@H]1CC[C@H]2[C@@H]3CC[C@H]4C[C@H](O)CC[C@]4(C)[C@H]3CC[C@]12C [3α-hydroxy-5α-pregnan-20-one, reference compound]
% Protected ([1]; IP, 50% hpbcd, 10 mg/kg, 10 minutes prior to metrazol (85 mg/kg)): 100%
ED50 ([1]; Mus musculus, metrazol s.c., steroid i.p., 20% hydroxypropyl-β-cyclodextrin in water): 4.9 mg/kg
activity (mice [2]; 10 & 20 mg/kg, compared to control groups): significant (p < 0.01) increases
number of transitions between the dark box and the light box (mice [2]; at doses tested, versus control (Dunnett's t-test)): significantly increased
time spent on the open-arms (mice [3]; 10 mg/kg (p ≤ 0.01)): significant increases
entries into the open-arms (mice [3]; 20 mg/kg (p ≤ 0.05)): significant increase
% Control (mice [3]; IP, 50% hpbcd, 20 mg/kg): 143.7%
